The test system of the assay is CD2F1 mice, L1210 leukemia ip, survival T/C. The assay is described as follows: NCI In Vivo Anticancer Drug Screen. Data for tumor model L1210 Leukemia (intraperitoneal) in CD2F1 (CDF1) mice. The following applies: higher = longer survival. The method, boiled down: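 Tumor-bearing mice (transplanted tumor) were split into treated and vehicle control groups, and the measured endpoint of each treated group was divided by that of its vehicle controls.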

Where [1] appears, read: endpoint: mean survival time, dose: 100.0 mg/kg/injection, schedule: Q04DX003 (ip), vehicle: other.
Where [2] appears, read: endpoint: mean survival time, dose: 100.0 mg/kg/injection, schedule: Q01DX009 (ip), vehicle: saline with Tween-80.
[3] abbreviates: endpoint: mean survival time, dose: 100.0 mg/kg/injection, schedule: Q04DX003 (ip), vehicle: saline with Tween-80.
The mark [4] stands for this setting: endpoint: mean survival time, dose: 200.0 mg/kg/injection, schedule: Q01DX009 (ip), vehicle: saline with Tween-80.
Setting [5] is: endpoint: mean survival time, dose: 200.0 mg/kg/injection, schedule: Q04DX003 (ip), vehicle: saline with Tween-80.
[6] abbreviates: endpoint: mean survival time, dose: 400.0 mg/kg/injection, schedule: Q01DX009 (ip), vehicle: saline with Tween-80.
Where [7] appears, read: endpoint: mean survival time, dose: 400.0 mg/kg/injection, schedule: Q04DX003 (ip), vehicle: saline with Tween-80.
The mark [8] stands for this setting: endpoint: mean survival time, dose: 100.0 mg/kg/injection, schedule: Q01DX001 (ip), vehicle: saline with Tween-80.

Consider 21 compounds from PubChem BioAssay AID256 (DTP/NCI, 2004).

Inconclusive results and toxic doses are left out. Non-standard residues stand in square brackets, D forms with d. Residues, ends and D or L forms follow the SMILES beside them. ξ: configuration not given here. *: point of attachment. ξE = NC(CCC(=O)O)C(=O)O; Cbz = O=C(OCc1ccccc1)*; OBn = c1ccc(CO*)cc1

For the compound `O=C(CNC(=O)OCc1ccccc1)NCC(=O)NC(CCC(=O)OCc1ccccc1)C(=O)OCc1ccccc1` (stereo not drawn) (Cbz-Gly-Gly-[ξE](OBn)-OBn), the T/C by setting is: under setting [1], 95 % of control; (endpoint: mean survival time, dose: 200.0 mg/kg/injection, schedule: Q04DX003 (ip), vehicle: other) 91 % of control; (endpoint: mean survival time, dose: 400.0 mg/kg/injection, schedule: Q04DX003 (ip), vehicle: other) 95 % of control.
With `ClCCCCOCCCCCl`, the T/C under setting [2] is 95 % of control; the T/C under setting [3] was 97 % of control; the T/C under setting [4] is 95 % of control; the T/C under setting [5] is 95 % of control; the T/C under setting [6] was 117 % of control; the T/C under setting [7] is 97 % of control.
`O=C(OC1COC(OC(=O)c2ccccc2)C(OC(=O)c2ccccc2)C1OC(=O)c1ccccc1)c1ccccc1` (configuration not stated): the T/C runs as follows: under setting [2], 97 % of control; under setting [3], 101 % of control; under setting [4], 95 % of control; under setting [5], 86 % of control; under setting [6], 97 % of control; under setting [7], 95 % of control.
`Oc1ccc(Cl)cc1Sc1cc(Cl)ccc1O`: the T/C under setting [1] was 108 % of control.
On to `Nc1c(-c2ncc[nH]2)ncn1C1OC(CO)C(O)C1O` (configuration not stated), for which the T/C is 109 % of control (endpoint: mean survival time, dose: 100.0 mg/kg/injection, schedule: Q04DX002 (ip), vehicle: saline with Tween-80); 97 % of control (endpoint: mean survival time, dose: 200.0 mg/kg/injection, schedule: Q04DX002 (ip), vehicle: saline with Tween-80); 102 % of control (endpoint: mean survival time, dose: 400.0 mg/kg/injection, schedule: Q04DX002 (ip), vehicle: saline with Tween-80).
In the case of `CCC1OC2CS(=O)(=O)CC2O1` (configuration not stated), the T/C is 96 % of control under setting [3], 96 % of control under setting [5] and 96 % of control under setting [7].
`O=C(NCCc1nc(-c2nc(C(=O)O)cs2)cs1)c1ccccc1`: the T/C is 96 % of control under setting [2], 96 % of control under setting [4] and 96 % of control under setting [6].
On to `CCC(CC)(C[NH-])C[NH-].[Cl][Pt+2][Cl]`, for which the T/C reads like this: (endpoint: mean survival time, dose: 1.56 mg/kg/injection, schedule: Q04DX003 (ip), vehicle: saline) 105 % of control; (endpoint: mean survival time, dose: 3.12 mg/kg/injection, schedule: Q04DX003 (ip), vehicle: saline) 118 % of control; (endpoint: mean survival time, dose: 6.25 mg/kg/injection, schedule: Q04DX003 (ip), vehicle: saline) 119 % of control; (endpoint: mean survival time, dose: 12.5 mg/kg/injection, schedule: Q04DX003 (ip), vehicle: saline with Tween-80) 319 % of control; (endpoint: mean survival time, dose: 12.5 mg/kg/injection, schedule: Q04DX003 (ip), vehicle: saline) 155 % of control; (endpoint: mean survival time, dose: 25.0 mg/kg/injection, schedule: Q04DX003 (ip), vehicle: saline with Tween-80) 307 % of control. The T/C by setting is: (endpoint: mean survival time, dose: 25.0 mg/kg/injection, schedule: Q04DX003 (ip), vehicle: saline) 227 % of control; (endpoint: mean survival time, dose: 50.0 mg/kg/injection, schedule: Q04DX003 (ip), vehicle: saline with Tween-80) 86 % of control; (endpoint: median survival time, dose: 1.5 mg/kg/injection, schedule: Q01DX009 (ip), vehicle: carboxymethylcellulose (CMC)) 234 % of control; (endpoint: median survival time, dose: 3.0 mg/kg/injection, schedule: Q01DX009 (ip), vehicle: carboxymethylcellulose (CMC)) 203 % of control; (endpoint: median survival time, dose: 6.0 mg/kg/injection, schedule: Q01DX001 (ip), vehicle: carboxymethylcellulose (CMC)) 203 % of control; (endpoint: median survival time, dose: 6.0 mg/kg/injection, schedule: Q01DX009 (ip), vehicle: carboxymethylcellulose (CMC)) 109 % of control. The T/C runs as follows: (endpoint: median survival time, dose: 9.0 mg/kg/injection, schedule: Q01DX001 (ip), vehicle: carboxymethylcellulose (CMC)) 312 % of control; (endpoint: median survival time, dose: 9.0 mg/kg/injection, schedule: Q01DX009 (ip), vehicle: carboxymethylcellulose (CMC)) 98 % of control; (endpoint: median survival time, dose: 12.0 mg/kg/injection, schedule: Q01DX001 (ip), vehicle: carboxymethylcellulose (CMC)) 312 % of control; (endpoint: median survival time, dose: 15.0 mg/kg/injection, schedule: Q01DX001 (ip), vehicle: carboxymethylcellulose (CMC)) 106 % of control.
In the case of `N#CCCCN1CCOCC1`, the T/C was 101 % of control (endpoint: mean survival time, dose: 100.0 mg/kg/injection, schedule: Q01DX009 (ip), vehicle: saline); 102 % of control (endpoint: mean survival time, dose: 200.0 mg/kg/injection, schedule: Q01DX009 (ip), vehicle: saline); 98 % of control (endpoint: mean survival time, dose: 400.0 mg/kg/injection, schedule: Q01DX009 (ip), vehicle: saline).
On to `CC[N+](C)(CC)CCCOC(=O)C(c1ccccc1)c1ccccc1`, for which the T/C (endpoint: mean survival time, dose: 6.25 mg/kg/injection, schedule: Q01DX009 (ip), vehicle: saline with Tween-80) is 96 % of control; the T/C (endpoint: mean survival time, dose: 12.5 mg/kg/injection, schedule: Q01DX009 (ip), vehicle: saline with Tween-80) is 96 % of control; the T/C (endpoint: mean survival time, dose: 25.0 mg/kg/injection, schedule: Q01DX009 (ip), vehicle: saline with Tween-80) was 94 % of control.
Consider `CCCCOC(=S)S.[Zn+2]`, for which the T/C under setting [3] is 94 % of control, the T/C under setting [5] was 108 % of control and the T/C under setting [7] was 89 % of control.
With `COc1cccc2c1C(=O)c1c(O)c3c(c(O)c1C2=O)C[C@@](O)(C(C)O)C[C@@H]3OC1CC(N)C(O)C(C)O1` (some centres not stated), the T/C was 112 % of control (endpoint: mean survival time, dose: 0.65 mg/kg/injection, schedule: Q01DX009 (ip), vehicle: saline); 113 % of control (endpoint: mean survival time, dose: 1.08 mg/kg/injection, schedule: Q01DX009 (ip), vehicle: saline); 120 % of control (endpoint: mean survival time, dose: 3.0 mg/kg/injection, schedule: Q04DX003 (ip), vehicle: saline); 96 % of control (endpoint: mean survival time, dose: 13.3 mg/kg/injection, schedule: Q01DX009 (ip), vehicle: saline).
In the case of `COC1CC(N)C(O)C(C)O1` (configuration not stated), the T/C is 103 % of control (endpoint: mean survival time, dose: 12.5 mg/kg/injection, schedule: Q01DX009 (ip), vehicle: water); 101 % of control (endpoint: mean survival time, dose: 25.0 mg/kg/injection, schedule: Q01DX009 (ip), vehicle: water); 107 % of control (endpoint: mean survival time, dose: 50.0 mg/kg/injection, schedule: Q01DX009 (ip), vehicle: water); 105 % of control (endpoint: mean survival time, dose: 100.0 mg/kg/injection, schedule: Q01DX009 (ip), vehicle: water); 92 % of control (endpoint: mean survival time, dose: 200.0 mg/kg/injection, schedule: Q01DX009 (ip), vehicle: water).
`CCCCCCP(C)(=O)CCCCCC`: the T/C is 96 % of control (endpoint: mean survival time, dose: 25.0 mg/kg/injection, schedule: Q01DX001 (ip), vehicle: saline with Tween-80); 97 % of control (endpoint: mean survival time, dose: 50.0 mg/kg/injection, schedule: Q01DX001 (ip), vehicle: saline with Tween-80); 100 % of control under setting [8].
As for `O=[N+]([O-])c1ccc(N2N=NC3C4CCC(C4)C32)cc1` (configuration not stated), the T/C was 93 % of control under setting [3], 91 % of control under setting [5] and 96 % of control under setting [7].
As to `COC(=O)C#CC(N)=O`, the T/C is, setting by setting: (endpoint: mean survival time, dose: 1.25 mg/kg/injection, schedule: Q01DX009 (ip), vehicle: saline sonified) 106 % of control; (endpoint: mean survival time, dose: 2.5 mg/kg/injection, schedule: Q01DX009 (ip), vehicle: saline sonified) 109 % of control; (endpoint: mean survival time, dose: 5.0 mg/kg/injection, schedule: Q01DX009 (ip), vehicle: saline sonified) 113 % of control; (endpoint: mean survival time, dose: 5.0 mg/kg/injection, schedule: Q04DX003 (ip), vehicle: saline sonified) 110 % of control.
As to `c1c(NC2=NCCO2)cc2c3c1CCCN3CCC2`, the T/C is 92 % of control under setting [3] and 97 % of control under setting [5].
As to `CC(=O)Nc1ncc(CN2CCCCC2)s1`, the T/C reads like this: (endpoint: mean survival time, dose: 100.0 mg/kg/injection, schedule: Q04DX002 (ip), vehicle: Klucel (hydroxypropylcellulose) (HPC)) 100 % of control; (endpoint: mean survival time, dose: 200.0 mg/kg/injection, schedule: Q04DX002 (ip), vehicle: Klucel (hydroxypropylcellulose) (HPC)) 103 % of control.
Consider `Cc1cc2c(Cl)ncnc2[nH]1`, for which the T/C is, setting by setting: (endpoint: median survival time, dose: 25.0 mg/kg/injection, schedule: Q01DX005 (ip), vehicle: saline) 95 % of control; (endpoint: median survival time, dose: 50.0 mg/kg/injection, schedule: Q01DX005 (ip), vehicle: saline) 90 % of control; (endpoint: median survival time, dose: 100.0 mg/kg/injection, schedule: Q01DX005 (ip), vehicle: saline) 101 % of control.
In the case of `CC12CCC(O)CC1CCC1C2CCC2(C)C(C3=CC(=O)OC3)CCC12O` (configuration not stated), the T/C reads like this: (endpoint: mean survival time, dose: 12.5 mg/kg/injection, schedule: Q04DX003 (ip), vehicle: Klucel (hydroxypropylcellulose) (HPC)) 92 % of control; (endpoint: mean survival time, dose: 25.0 mg/kg/injection, schedule: Q04DX003 (ip), vehicle: Klucel (hydroxypropylcellulose) (HPC)) 100 % of control; (endpoint: mean survival time, dose: 50.0 mg/kg/injection, schedule: Q04DX003 (ip), vehicle: Klucel (hydroxypropylcellulose) (HPC)) 92 % of control.
In the case of `Cc1csc2ncnc(N)c12`, the T/C is 100 % of control under setting [8]; 92 % of control (endpoint: mean survival time, dose: 200.0 mg/kg/injection, schedule: Q01DX001 (ip), vehicle: saline with Tween-80); 101 % of control (endpoint: mean survival time, dose: 400.0 mg/kg/injection, schedule: Q01DX001 (ip), vehicle: saline with Tween-80).
